Assay results taken from paper PMC10673995, “Discovery of a novel cardiac-specific myosin modulator using artificial intelligence-based virtual screening” (Nature Communications, 2023).
Where “and” joins values, the source holds several entries; their conditions need not be identical. Equal entries are not always repeated.

Biological target: bovine cardiac myofibrils (Bos taurus, UniProt Q9BE39)
Experiment: mant-ATP chase single nucleotide turnover, cardiac myofibrils;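 further: bovine cardiac myofibrils at 1 mg/mL in PIPES buffer, 20 µM mant-ATP aged 1 min then chased with 20 mM ATP, fluorescence (ex 360, em 450 nm) read every second for 15 min at 25 °C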
[1] = Cardiac myofibrils, individual replicates

Chain of bovine cardiac myofibrils (Q9BE39 whole entry): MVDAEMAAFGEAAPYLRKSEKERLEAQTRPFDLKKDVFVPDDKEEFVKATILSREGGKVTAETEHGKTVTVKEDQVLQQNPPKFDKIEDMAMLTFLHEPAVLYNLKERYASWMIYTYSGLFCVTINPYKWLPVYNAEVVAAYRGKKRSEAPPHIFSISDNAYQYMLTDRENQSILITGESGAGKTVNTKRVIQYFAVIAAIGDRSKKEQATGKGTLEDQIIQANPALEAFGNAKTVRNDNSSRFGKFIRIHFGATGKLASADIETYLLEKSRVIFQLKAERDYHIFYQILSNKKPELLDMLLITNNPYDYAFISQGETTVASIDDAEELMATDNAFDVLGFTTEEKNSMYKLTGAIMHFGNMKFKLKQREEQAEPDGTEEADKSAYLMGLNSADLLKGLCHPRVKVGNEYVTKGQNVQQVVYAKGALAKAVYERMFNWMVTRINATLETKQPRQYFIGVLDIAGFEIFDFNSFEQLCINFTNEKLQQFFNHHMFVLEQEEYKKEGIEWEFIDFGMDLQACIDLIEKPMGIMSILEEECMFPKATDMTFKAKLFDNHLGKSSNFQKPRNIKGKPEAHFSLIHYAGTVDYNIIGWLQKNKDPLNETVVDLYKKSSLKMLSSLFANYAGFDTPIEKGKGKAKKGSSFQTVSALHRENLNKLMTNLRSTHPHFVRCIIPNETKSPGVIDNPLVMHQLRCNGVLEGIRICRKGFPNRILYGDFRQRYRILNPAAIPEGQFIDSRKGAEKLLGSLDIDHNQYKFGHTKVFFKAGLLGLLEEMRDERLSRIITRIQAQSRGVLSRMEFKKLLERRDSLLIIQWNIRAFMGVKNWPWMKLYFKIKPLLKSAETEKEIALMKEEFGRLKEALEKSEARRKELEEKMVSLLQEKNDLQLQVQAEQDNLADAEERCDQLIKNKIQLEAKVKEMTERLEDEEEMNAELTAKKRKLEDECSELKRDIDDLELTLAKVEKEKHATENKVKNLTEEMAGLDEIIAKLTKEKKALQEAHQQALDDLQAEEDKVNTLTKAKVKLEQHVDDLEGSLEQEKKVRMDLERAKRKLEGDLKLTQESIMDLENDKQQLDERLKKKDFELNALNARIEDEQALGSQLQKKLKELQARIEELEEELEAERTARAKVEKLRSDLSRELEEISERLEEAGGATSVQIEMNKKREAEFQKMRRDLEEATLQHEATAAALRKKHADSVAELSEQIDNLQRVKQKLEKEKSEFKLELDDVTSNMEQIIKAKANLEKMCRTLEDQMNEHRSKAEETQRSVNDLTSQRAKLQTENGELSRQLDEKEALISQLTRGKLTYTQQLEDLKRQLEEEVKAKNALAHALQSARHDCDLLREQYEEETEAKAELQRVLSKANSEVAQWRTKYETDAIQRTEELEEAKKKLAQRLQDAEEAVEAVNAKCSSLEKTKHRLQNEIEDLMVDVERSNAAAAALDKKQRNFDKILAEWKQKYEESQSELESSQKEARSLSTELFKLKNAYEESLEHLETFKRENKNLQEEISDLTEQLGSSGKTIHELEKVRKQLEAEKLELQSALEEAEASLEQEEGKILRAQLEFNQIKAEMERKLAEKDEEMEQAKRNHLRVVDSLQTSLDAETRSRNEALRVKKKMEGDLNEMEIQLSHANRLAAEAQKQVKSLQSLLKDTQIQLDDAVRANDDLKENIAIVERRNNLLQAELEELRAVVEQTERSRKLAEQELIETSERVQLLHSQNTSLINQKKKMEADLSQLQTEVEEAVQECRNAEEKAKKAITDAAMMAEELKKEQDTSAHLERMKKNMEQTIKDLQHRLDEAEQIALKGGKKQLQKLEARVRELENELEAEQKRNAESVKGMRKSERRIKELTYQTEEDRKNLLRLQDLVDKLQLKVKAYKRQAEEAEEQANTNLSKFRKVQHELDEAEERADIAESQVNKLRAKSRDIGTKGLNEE
Chain of bovine cardiac myofibrils (P85100 whole entry partner): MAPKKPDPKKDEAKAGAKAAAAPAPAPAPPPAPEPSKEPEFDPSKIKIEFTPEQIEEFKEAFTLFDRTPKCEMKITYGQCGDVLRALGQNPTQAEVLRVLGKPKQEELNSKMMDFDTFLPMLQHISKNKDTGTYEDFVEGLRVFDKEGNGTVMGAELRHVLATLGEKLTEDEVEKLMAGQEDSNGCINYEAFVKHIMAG
Chain of bovine cardiac myofibrils (Q3SZE5 whole entry partner): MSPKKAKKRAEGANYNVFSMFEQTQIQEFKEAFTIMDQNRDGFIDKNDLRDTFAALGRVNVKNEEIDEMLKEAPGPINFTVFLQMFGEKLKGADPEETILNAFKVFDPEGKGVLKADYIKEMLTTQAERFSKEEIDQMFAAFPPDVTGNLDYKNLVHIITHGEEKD
Excerpt: We used systems of increasing complexity ranging from the isolated cardiac myosin motor domains (Fig. 3a) to synthetic thick filaments formed from purified full-length bovine cardiac myosin (Fig. 3b) and bovine cardiac myofibrils as substrates in the chase assays (Fig. 3c). In contrast to the isolated myosin motors, synthetic thick filaments contain two myosin head domains per molecule connected via their coiled-coil tail.
Synthetic thick filaments were freshly prepared by diluting full-length bovine cardiac myosin stock into assay buffer (composition in mmol L^−1: 15 PIPES pH 7, 5 MgCl2, 1 DTT) and incubation on ice for 2 h. Bovine myosin S1 and synthetic thick filament concentrations were adjusted to 0.4 μmol L^−1 with assay buffer and 40 μL aliquoted into individual wells of a black 384-well plate (Greiner). Mant-ATP (JenaBioscience) was added to each well to a final concentration of 0.4 μmol L^−1 using an automated injector unit in a ClarioStar Plate Reader (BMG LabTech) and the system was allowed to age for 1 min. The chase phase was started by adding a final concentration of 2 mmol L^−1 ATP using a second automated injector unit. Fluorescence intensity from each well was constantly measured for 15 min every 1 sec at 25 °C with the following settings: excitation at 360 nm with a 20 nm bandwidth and emission at 450 nm with a 20 nm bandwidth. For experiments with cardiac myofibrils the concentration was adjusted to 1 mg m L^−1, and the mant-ATP and ATP concentrations were increased to 20 μmol L^−1 and 20 mmol L^−1, respectively.

effect on the rate of the fast phase: no effect | kfast (2 μmol L^−1 Mavacamten or 20 μmol L^−1 F10, control 0.0719 ± 0.0193): 0.0637 ± 0.0271 s⁻¹ | Representative Traces (t [s] = 6): 0.8107 | Representative Traces (t [s] = 7): 0.8334 | Representative Traces (t [s] = 8): 0.8024 | Representative Traces (t [s] = 9): 0.8319 | Representative Traces (t [s] = 10): 0.793 | Representative Traces (t [s] = 11): 0.7299 | Representative Traces (t [s] = 12): 0.7382 | Representative Traces (t [s] = 13): 0.7429 | Representative Traces (t [s] = 14): 0.7007 | Representative Traces (t [s] = 96): 0.4149 | Representative Traces (t [s] = 97): 0.3828 | Representative Traces (t [s] = 98): 0.3883 | Representative Traces (t [s] = 99): 0.382 | Representative Traces (t [s] = 100): 0.393 | Representative Traces (t [s] = 101): 0.411 | Representative Traces (t [s] = 102): 0.3936 | Representative Traces (t [s] = 103): 0.355 | Representative Traces (t [s] = 104): 0.403 | Representative Traces (t [s] = 105): 0.3774 | Representative Traces (t [s] = 106): 0.4119 | Representative Traces (t [s] = 107): 0.4038 | Representative Traces (t [s] = 108): 0.3884 | Representative Traces (t [s] = 109): 0.3828 | Representative Traces (t [s] = 110): 0.3991 | Representative Traces (t [s] = 111): 0.3974 | Representative Traces (t [s] = 112): 0.3704 | Representative Traces (t [s] = 113): 0.3729 | Representative Traces (t [s] = 114): 0.3757 | Representative Traces (t [s] = 115): 0.3708 | Representative Traces (t [s] = 116): 0.3829 | Representative Traces (t [s] = 117): 0.3692 | Representative Traces (t [s] = 118): 0.3929 | Representative Traces (t [s] = 119): 0.3896 | Representative Traces (t [s] = 120): 0.34 | Representative Traces (t [s] = 121): 0.3562 | Representative Traces (t [s] = 122): 0.3276 | Representative Traces (t [s] = 123): 0.3379 | Representative Traces (t [s] = 124): 0.3372 | Representative Traces (t [s] = 125): 0.3385 | Representative Traces (t [s] = 126): 0.3527 | Representative Traces (t [s] = 127): 0.3498 | Representative Traces (t [s] = 128): 0.3795 | Representative Traces (t [s] = 129): 0.3503 | Representative Traces (t [s] = 130): 0.3889 | Representative Traces (t [s] = 131): 0.3403 | Representative Traces (t [s] = 132): 0.3551 | Representative Traces (t [s] = 133): 0.3408 | Representative Traces (t [s] = 134): 0.3174 | Representative Traces (t [s] = 135): 0.3637 | Representative Traces (t [s] = 136): 0.3269 | Representative Traces (t [s] = 137): 0.3446 | Representative Traces (t [s] = 138): 0.322 | Representative Traces (t [s] = 140): 0.3437 | Representative Traces (t [s] = 141): 0.3145 | Representative Traces (t [s] = 142): 0.3341 | Representative Traces (t [s] = 143): 0.3342 | Representative Traces (t [s] = 144): 0.3241 | Representative Traces (t [s] = 145): 0.353 | Representative Traces (t [s] = 146): 0.3167 | Representative Traces (t [s] = 147): 0.3169 | Representative Traces (t [s] = 150): 0.3343 | Representative Traces (t [s] = 151): 0.3323 | Representative Traces (t [s] = 152): 0.3258 | Representative Traces (t [s] = 153): 0.3279 | Representative Traces (t [s] = 154): 0.3292 | Representative Traces (t [s] = 155): 0.3236 | Representative Traces (t [s] = 156): 0.3153 | Representative Traces (t [s] = 157): 0.312 | Representative Traces (t [s] = 158): 0.3484 | Representative Traces (t [s] = 159): 0.3282 | Representative Traces (t [s] = 160): 0.2877 | Representative Traces (t [s] = 161): 0.3298 | Representative Traces (t [s] = 162): 0.3159 | Representative Traces (t [s] = 164): 0.2984 | Representative Traces (t [s] = 165): 0.3474 | Representative Traces (t [s] = 166): 0.3344 | Representative Traces (t [s] = 167): 0.3033 | Representative Traces (t [s] = 168): 0.3319 | Representative Traces (t [s] = 169): 0.3401 | Representative Traces (t [s] = 170): 0.3298 | Representative Traces (t [s] = 171): 0.3174 | Representative Traces (t [s] = 172): 0.335 | Representative Traces (t [s] = 173): 0.2879 | Representative Traces (t [s] = 174): 0.2744 | Representative Traces (t [s] = 175): 0.3144 | Representative Traces (t [s] = 177): 0.3003 | Representative Traces (t [s] = 180): 0.3087 | Representative Traces (t [s] = 181): 0.2965 | Representative Traces (t [s] = 182): 0.2814 | Representative Traces (t [s] = 183): 0.3178 | Representative Traces (t [s] = 184): 0.3078 | Representative Traces (t [s] = 185): 0.2721 | Representative Traces (t [s] = 186): 0.3115 | Representative Traces (t [s] = 187): 0.2704 | Representative Traces (t [s] = 188): 0.2836 | Representative Traces (t [s] = 189): 0.2816 | Representative Traces (t [s] = 190): 0.2901 | Representative Traces (t [s] = 191): 0.3081 | Representative Traces (t [s] = 192): 0.2598 | Representative Traces (t [s] = 193): 0.2745
Compound: CC(C)n1c(=O)cc(N[C@@H](C)c2ccccc2)[nH]c1=O [Mavacamten]
kfast [1]: 0.1448 s⁻¹ and 0.0188 s⁻¹ and 0.01818 s⁻¹ and 0.1128 s⁻¹ and 0.02375 s⁻¹ | kslow [1]: 0.005449 s⁻¹ and 0.0002437 s⁻¹ and 0.001429 s⁻¹ and 0.00295 s⁻¹ and 0.003851 s⁻¹ | slow phase [1]: 76.35% and 29.71% and 40.4% and 38.11% and 48.47% | Bar graph (Figure 3c, individual replicates): 76.35 and 29.71 and 40.4 and 38.11 and 48.47
